Results from patent US20110105509A1 (Wyeth, LLC, priority 2009, published 2011).

target: T1, CRTH2 (Homo sapiens, UniProt Q9Y5Y4); assay: FRET based competitive immunoassay (cAMP) in CRTH2 expressing CHO cells; assay type: cell-based; conditions: CRTH2 expressing CHO cells incubated with forskolin and PGD2; Eu3+ cryptate-labeled anti-cAMP and d2-labeled cAMP
T1 construct: expressed in transfected cells; host or cells: CHO cells
T1 sequence (Q9Y5Y4 1-395): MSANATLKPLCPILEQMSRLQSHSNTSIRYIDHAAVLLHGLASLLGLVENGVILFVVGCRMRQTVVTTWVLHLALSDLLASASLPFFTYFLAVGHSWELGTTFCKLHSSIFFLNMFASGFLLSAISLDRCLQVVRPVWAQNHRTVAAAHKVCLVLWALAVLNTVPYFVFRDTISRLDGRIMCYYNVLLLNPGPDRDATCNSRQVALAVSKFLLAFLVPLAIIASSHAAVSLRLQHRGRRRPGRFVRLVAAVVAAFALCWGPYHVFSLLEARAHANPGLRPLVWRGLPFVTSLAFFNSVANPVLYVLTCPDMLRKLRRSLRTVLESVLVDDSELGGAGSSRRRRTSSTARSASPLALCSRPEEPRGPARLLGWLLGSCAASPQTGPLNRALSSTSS
Experimental: FRET Assay: To evaluate potency compounds were tested in a FRET based competitive immunoassay in which CRTH2 expressing CHO cells were incubated in the presence of forskolin and PGD2 along with Eu3+ cryptate-labeled anti-cAMP and d2-labeled cAMP.

| IC50 | SMILES |
| --- | --- |
| 81 nM | Cc1c(-c2nn(Cc3nc4cc(C(F)(F)F)ccc4s3)c(=O)c3ccccc23)c2cc(Cl)ccc2n1CC(=O)O [Example 100, 2-(5-chloro-2-methyl-3-(4-oxo-3-((5-(trifluoromethyl)benzo[d]thiazol-2-yl)-methyl)-3,4-dihydrophthalazin-1-yl)-1H-indol-1-yl)acetic acid] |
| 10 nM | Cc1c(-c2nn(Cc3c(F)cccc3F)c(=O)c3ccccc23)c2cc(Cl)ccc2n1CC(=O)O [Example 101, 2-(5-chloro-3-(3-(2,6-difluorobenzyl)-4-oxo-3,4-dihydrophthalazin-1-yl)-2-methyl-1H-indol-1-yl)acetic acid] |
| 27 nM | Cc1c(-c2nn(Cc3ccc(OC(F)(F)F)cc3)c(=O)c3ccccc23)c2cc(Cl)ccc2n1CC(=O)O [Example 102, 2-(5-chloro-2-methyl-3-(4-oxo-3-(4-(trifluoromethoxy)benzyl)-3,4-dihydrophthalazin-1-yl)-1H-indol-1-yl)acetic acid] |
| 11 nM | Cc1c(-c2nn(Cc3ccc4ccccc4n3)c(=O)c3ccccc23)c2cc(Cl)ccc2n1CC(=O)O [Example 103, 2-(5-chloro-2-methyl-3-(4-oxo-3-(quinolin-2-ylmethyl)-3,4-dihydro-phthalazin-1-yl)-1H-indol-1-yl)acetic acid] |
| 10 nM | Cc1cc(Cn2nc(-c3c(C)n(CC(=O)O)c4ccc(Cl)cc34)c3ccccc3c2=O)c2ccccc2n1 [Example 104, 2-(5-chloro-2-methyl-3-(3-((2-methylquinolin-4-yl)methyl)-4-oxo-3,4-dihydro-phthalazin-1-yl)-1H-indol-1-yl)acetic acid] |
| 121 nM | Cc1c(-c2nn(C)c(=O)c3ccccc23)c2cc(Cl)ccc2n1CC(=O)O [Example 105, 2-(5-chloro-2-methyl-3-(3-methyl-4-oxo-3,4-dihydrophthalazin-1-yl)-1H-indol-1-yl)-acetic acid] |
| 23 nM | CCn1nc(-c2c(C)n(CC(=O)O)c3ccc(Cl)cc23)c2ccccc2c1=O [Example 106, 2-(5-Chloro-3-(3-ethyl-4-oxo-3,4-dihydrophthalazin-1-yl)-2-methyl-1H-indol-1-yl)acetic acid] |
| 22 nM | Cc1c(-c2nn(CC3CC3)c(=O)c3ccccc23)c2cc(Cl)ccc2n1CC(=O)O [Example 108, 2-(5-chloro-3-(3-(cyclopropylmethyl)-4-oxo-3,4-dihydrophthalazin-1-yl)-2-methyl-1H-indol-1-yl)acetic acid] |
| 42 nM | Cc1c(-c2nn(CC(F)(F)F)c(=O)c3ccccc23)c2cc(Cl)ccc2n1CC(=O)O [Example 109, 2-(5-chloro-2-methyl-3-(4-oxo-3-(2,2,2-trifluoroethyl)-3,4-dihydro-phthalazin-1-yl)-1H-indol-1-yl)acetic acid] |
| 7 nM | Cc1c(-c2nn(Cc3nc4ccccc4s3)c(=O)c3ccccc23)c2cc(F)ccc2n1CC(=O)O [Example 110, 2-(3-(3-(Benzo[d]thiazol-2-ylmethyl)-4-oxo-3,4-dihydrophthalazin-1-yl)-5-fluoro-2-methyl-1H-indol-1-yl)acetic acid] |
| > 20 nM | Cc1c(-c2nn(Cc3ccc(F)cc3)c(=O)c3ccccc23)c2cc(F)ccc2n1CC(=O)O [Example 111, 2-(5-fluoro-3-(3-(4-fluorobenzyl)-4-oxo-3,4-dihydrophthalazin-1-yl)-2-methyl-1H-indol-1-yl)acetic acid] |
| 19 nM | Cc1c(-c2nn(Cc3cccc(F)c3F)c(=O)c3ccccc23)c2cc(F)ccc2n1CC(=O)O [Example 112, 2-(3-(3-(2,3-difluorobenzyl)-4-oxo-3,4-dihydrophthalazin-1-yl)-5-fluoro-2-methyl-1H-indol-1-yl)acetic acid] |
| 14 nM | Cc1c(-c2nn(Cc3ccccc3F)c(=O)c3ccccc23)c2cc(F)ccc2n1CC(=O)O [Example 113, 2-(5-fluoro-3-(3-(2-fluorobenzyl)-4-oxo-3,4-dihydrophthalazin-1-yl)-2-methyl-1H-indol-1-yl)acetic acid] |
| 13 nM | Cc1c(-c2nn(Cc3nc4cc(F)ccc4s3)c(=O)c3ccccc23)c2cc(F)ccc2n1CC(=O)O [Example 114, 2-(5-fluoro-3-(3-((5-fluorobenzo[d]thiazol-2-yl)methyl)-4-oxo-3,4-dihydro-phthalazin-1-yl)-2-methyl-1H-indol-1-yl)acetic acid] |
| 64 nM | Cc1c(-c2nn(Cc3nc4cc(C(F)(F)F)ccc4s3)c(=O)c3ccccc23)c2cc(F)ccc2n1CC(=O)O [Example 115, 2-(5-fluoro-2-methyl-3-(4-oxo-3-((5-(trifluoromethyl)benzo[d]thiazol-2-yl)-methyl)-3,4-dihydrophthalazin-1-yl)-1H-indol-1-yl)acetic acid] |

The next lines start with the compound.

| SMILES | IC50 |
| --- | --- |
| Cc1c(Cc2nn(Cc3ccccc3)c(=O)c3ccccc23)c2cc(Cl)ccc2n1CC(=O)O [Example 84, 2-(3-((3-Benzyl-4-oxo-3,4-dihydrophthalazin-1-yl)methyl)-5-chloro-2-methyl-1H-indol-1-yl)acetic acid] | 28 nM |
| Cc1c(Cc2cn(Cc3ccccc3)c(=O)c3ccccc23)c2cc(F)ccc2n1CC(=O)O [Example 85, 2-(3-((2-benzyl-1-oxo-1,2-dihydroisoquinolin-4-yl)methyl)-5-fluoro-2-methyl-1H-indol-1-yl)acetic acid] | 62 nM |
| Cc1c(Cc2cn(Cc3ccccc3)c(=O)c3ccccc23)c2ccccc2n1CC(=O)O [Example 86, 2-(3-((2-benzyl-1-oxo-1,2-dihydroisoquinolin-4-yl)methyl)-2-methyl-1H-indol-1-yl)acetic acid] | 197 nM |
| Cc1c(Cc2cn(Cc3ccccc3)c(=O)c3ccccc23)c2cc(Cl)ccc2n1CC(=O)O [Example 87, 2-(3-((2-benzyl-1-oxo-1,2-dihydroisoquinolin-4-yl)methyl)-5-chloro-2-methyl-1H-indol-1-yl)acetic acid] | 210 nM |
| Cc1c(-c2cn(Cc3ccccc3)c(=O)c3c2CCCC3)c2cc(F)ccc2n1CC(=O)O [Example 88, 2-(3-(2-benzyl-1-oxo-1,2,5,6,7,8-hexahydroisoquinolin-4-yl)-5-fluoro-2-methyl-1H-indol-1-yl)acetic acid] | 197 nM |
| Cc1c(-c2cn(CCCC(F)(F)F)c(=O)c3c2CCCC3)c2cc(F)ccc2n1CC(=O)O [Example 89, 2-(5-fluoro-2-methyl-3-(1-oxo-2-(4,4,4-trifluorobutyl)-1,2,5,6,7,8-hexahydro-isoquinolin-4-yl)-1H-indol-1-yl)acetic acid] | 123 nM |
| Cc1c(-c2cn(CC(F)(F)F)c(=O)c3c2CCCC3)c2cc(F)ccc2n1CC(=O)O [Example 90, 2-(5-fluoro-2-methyl-3-(1-oxo-2-(2,2,2-trifluoroethyl)-1,2,5,6,7,8-hexahydro-isoquinolin-4-yl)-1H-indol-1-yl)acetic acid] | > 1000 nM |
| Cc1c(-c2cn(C(C)C)c(=O)c3c2CCCC3)c2cc(F)ccc2n1CC(=O)O [Example 91, 2-(5-fluoro-3-(2-isopropyl-1-oxo-1,2,5,6,7,8-hexahydroisoquinolin-4-yl)-2-methyl-1H-indol-1-yl)acetic acid] | 107 nM |
| Cc1c(-c2cn(CC(C)(C)O)c(=O)c3c2CCCC3)c2cc(F)ccc2n1CC(=O)O [Example 92, 2-(5-fluoro-3-(2-(2-hydroxy-2-methylpropyl)-1-oxo-1,2,5,6,7,8-hexahydro-iso-quinolin-4-yl)-2-methyl-1H-indol-1-yl)acetic acid] | > 1000 nM |
| Cc1c(-c2cn(CCc3ccccc3)c(=O)c3c2CCCC3)c2cc(F)ccc2n1CC(=O)O [Example 93, 2-(5-fluoro-2-methyl-3-(1-oxo-2-phenethyl-1,2,5,6,7,8-hexahydro-iso-quinolin-4-yl)-1H-indol-1-yl)acetic acid] | 21 nM |
| Cc1c(-c2cn(Cc3ccc(F)cc3F)c(=O)c3c2CCCC3)c2cc(F)ccc2n1CC(=O)O [Example 94, 2-(3-(2-(2,4-difluorobenzyl)-1-oxo-1,2,5,6,7,8-hexahydroisoquinolin-4-yl)-5-fluoro-2-methyl-1H-indol-1-yl)acetic acid] | 119 nM |
| Cc1c(-c2cn(Cc3ccccn3)c(=O)c3ccccc23)c2cc(F)ccc2n1CC(=O)O [Example 95, 2-(5-fluoro-2-methyl-3-(1-oxo-2-(pyridin-2-ylmethyl)-1,2-dihydro-isoquinolin-4-yl)-1H-indol-1-yl)acetic acid] | 9 nM |
| Cc1c(-c2cn(CCC(C(F)(F)F)C(F)(F)F)c(=O)c3ccccc23)c2cc(F)ccc2n1CC(=O)O [Example 96, 2-(5-fluoro-2-methyl-3-(1-oxo-2-(4,4,4-trifluoro-3-(trifluoromethyl)butyl)-1,2-dihydroisoquinolin-4-yl)-1H-indol-1-yl)acetic acid] | 296 nM |
| Cc1c(-c2nn(Cc3cccc(F)c3F)c(=O)c3ccccc23)c2cc(Cl)ccc2n1CC(=O)O [Example 97, 2-(5-chloro-3-(3-(2,3-difluorobenzyl)-4-oxo-3,4-dihydrophthalazin-1-yl)-2-methyl-1H-indol-1-yl)acetic acid] | 7 nM |
| Cc1c(-c2nn(Cc3ccccc3F)c(=O)c3ccccc23)c2cc(Cl)ccc2n1CC(=O)O [Example 98, 2-(5-Chloro-3-(3-(2-fluorobenzyl)-4-oxo-3,4-dihydrophthalazin-1-yl)-2-methyl-1H-indol-1-yl)acetic acid] | 17 nM |
| Cc1c(-c2nn(Cc3nc4cc(F)ccc4s3)c(=O)c3ccccc23)c2cc(Cl)ccc2n1CC(=O)O [Example 99, 2-(5-chloro-3-(3-((5-fluorobenzo[d]thiazol-2-yl)methyl)-4-oxo-3,4-dihydrophthalazin-1-yl)-2-methyl-1H-indol-1-yl)acetic acid] | 10 nM |
